Data taken from US6184217A (Cephalon, Inc., priority 1997, dated 2001).
pIC50: −log10 of the molar value.

Legend:
[1] = tested on: uptake of catecholamines into nerve endings; experiment: Uptake of catecholamines into nerve endings; format: biochemical
[2] = tested on: striatal tyrosine hydroxylase (dopaminergic neurons); experiment: Striatal tyrosine hydroxylase activity in high-dose MPTP-treated mice; format: in vivo; settings: MPTP 40 mg/kg s.c., 7 days
Protocol: In a separate experiment, the activities of Compound A were assessed in a high dose MPTP-mouse model. A single 40 mg/kg injection of MPTP produced a 95% depletion in striatal tyrosine hydroxylase enzyme activity 7 days post-injection. Administration of Compound A at daily doses of between 0.03 and 3.0 mg/kg reduced the magnitude of the lesion, in a dose dependent manner.
Mice were treated with MPTP (40 mg/kg; s.c.) 4-6 hrs after the first Compound A injection. Compound A was then injected every day until the end of the experiment which was 7 days in duration. Striata were assessed for tyrosine hydroxylase enzyme activity. Asterisk indicates statistically significant difference (p<0.05) from MPTP-Vehicle treated animals.

[3] = tested on: protein kinase C; experiment: Protein kinase C inhibition in vitro; format: biochemical
[4] = tested on: acrylamide-induced peripheral neuropathy; experiment: Acrylamide-induced peripheral neuropathy, landing foot spread; format: in vivo, Sprague-Dawley rats; settings: 0.3 mg/kg/day s.c.; acrylamide 50 mg/kg IP three times/week for three weeks (FIG. 5)
Excerpt: Acrylamide produces a "dying back" central-peripheral distal neuropathy in humans and animals. The lesion is a mixed sensory/motor neuropathy characterized by weakness, tremor and ataxia in humans. In animals, acrylamide produces changes in behavior (sensory, motor and proprioceptive), histopathology, electrophysiology and weight loss. In the periphery, large diameter, long axon, Ab fibers are preferentially affected by acrylamide. In rats, acrylamide administration produces an axonopathy as measured by increased landing foot spread (LFS), a measure of proprioception.
It differs from other chemically-induced models (such as chemotherapeutic models) in that the duration is relatively short (3 weeks) and the animals are in relatively good health.
Male Sprague-Dawley rats weighing 250 grams at the start of the experiment were used. Acrylamide (50 mg/kg, IP) was administered three times/week for three weeks. The animals were dropped from a height of 30 cm and the distance between the hindfeet was recorded (Edwards, P. M. and Parker, V. H. (1977) "A simple, sensitive, and objective method for early assessment of acrylamide neuropathy in rats." Toxicol. Appl Pharmacol, 40:589-591). Compound A (0.1, 0.3 or 1.0 mg/kg, s.c. in 5% solutol) was administered once daily for the duration of the experiment.

[5] = molecular target: monoamine oxidase-B (Homo sapiens, UniProt P27338); experiment: Monoamine oxidase-B inhibition in vitro; settings: FIG. 2
Chain of monoamine oxidase-B (P27338 whole entry): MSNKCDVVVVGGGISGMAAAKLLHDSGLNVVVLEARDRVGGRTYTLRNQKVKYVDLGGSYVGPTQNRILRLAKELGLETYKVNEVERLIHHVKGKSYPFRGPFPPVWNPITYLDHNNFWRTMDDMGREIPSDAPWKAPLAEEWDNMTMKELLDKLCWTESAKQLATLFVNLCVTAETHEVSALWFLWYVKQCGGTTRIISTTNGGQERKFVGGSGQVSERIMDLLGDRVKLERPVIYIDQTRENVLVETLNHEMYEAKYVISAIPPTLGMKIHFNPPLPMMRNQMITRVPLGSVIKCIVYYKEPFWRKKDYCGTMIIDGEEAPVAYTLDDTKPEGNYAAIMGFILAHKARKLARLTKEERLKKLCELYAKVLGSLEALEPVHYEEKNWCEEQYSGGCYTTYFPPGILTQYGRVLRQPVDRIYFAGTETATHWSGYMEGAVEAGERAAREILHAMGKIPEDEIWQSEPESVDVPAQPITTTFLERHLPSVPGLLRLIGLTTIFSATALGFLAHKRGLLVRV

[6] = tested on: GABA-ergic neurons in the nucleus basalis magnocellularis; experiment: Ibotenic acid lesion: glutamic acid decarboxylase-expressing (GABA-ergic) neurons in nbm; format: in vivo, Sprague-Dawley rats
Protocol: Compound A was tested for its ability to prevent depletion (e.g., enhance the survival) of GABA-ergic neurons in the nucleus basalis magnocellularis, using the well-established ibotenic acid lesion mode. Ibotenic acid, an excitotoxin, is known to reduce numbers of GABA-expressing neurons in the nbm region (Lindefors et al., Neurosci. Lett., 135:262-264, 1992; Shaugnessy et al., Brain Res., 637:15-26, 1994). […] The rats were then dosed with Compound A (0.03 mg/kg) via subcutaneous injection beginning 18 hours after the lesion, and continuing q.o.d. until 18 days post-lesion. […] The numbers of neurons expressing glutamic acid decarboxylase were then counted throughout the rostral-caudal extent of the nucleus basalis magnocellularis, in a region where glutamic acid decarboxylase-expressing neurons of the nbm are easily distinguished from glutamic acid decarboxylase-expressing neurons in adjacent structures (white matter medial and ventral to the globus pallidus). The results were expressed as percent glutamic acid decarboxylase-expressing neurons on the lesioned side relative to the number on the opposite, unlesioned side. The results were also calculated separately for the rostral nbm, mid-nmb, and caudal nbm.

[7] = tested on: nucleus basalis magnocellularis; experiment: T-maze rewarded alternation task after bilateral nbm lesion; format: in vivo, Sprague-Dawley rats; settings: 0.1 mg/kg s.c. every other day until 12 days post-lesion; tested 10-12 weeks later
Protocol: Adult male Sprague-Dawley rats were first trained to alternate responses in a standard rewarded-alternation T-maze task (Hepler et al., J. Neurosci., 5:866-873, 1985). The animals then received bilateral lesions of the nucleus basalis magnocellularis, to impair performance in T-maze tasks (e.g., Salamone et al., Behav. Brain Res., 13:63-70, 1984). Beginning 18 hours after the lesion, the animals received Compound A via subcutaneous injection (0.1 mg/kg) every other day until 12 days post-lesion. Twenty-four hours following the last injection all animals were placed in the T-maze once a day, until their alternation performance reached pre-operative levels, which took anywhere from 3 to 10 days. After reaching criterion, the animals were not further tested for 8-10 weeks. At that point the animals were again placed in the T-maze, once a day until they reached pre-operative performance.

[8] = molecular target: monoamine oxidase-A (Homo sapiens, UniProt P21397); experiment: Monoamine oxidase-A inhibition in vitro; format: biochemical; settings: FIG. 1
Chain of monoamine oxidase-A (P21397 whole entry): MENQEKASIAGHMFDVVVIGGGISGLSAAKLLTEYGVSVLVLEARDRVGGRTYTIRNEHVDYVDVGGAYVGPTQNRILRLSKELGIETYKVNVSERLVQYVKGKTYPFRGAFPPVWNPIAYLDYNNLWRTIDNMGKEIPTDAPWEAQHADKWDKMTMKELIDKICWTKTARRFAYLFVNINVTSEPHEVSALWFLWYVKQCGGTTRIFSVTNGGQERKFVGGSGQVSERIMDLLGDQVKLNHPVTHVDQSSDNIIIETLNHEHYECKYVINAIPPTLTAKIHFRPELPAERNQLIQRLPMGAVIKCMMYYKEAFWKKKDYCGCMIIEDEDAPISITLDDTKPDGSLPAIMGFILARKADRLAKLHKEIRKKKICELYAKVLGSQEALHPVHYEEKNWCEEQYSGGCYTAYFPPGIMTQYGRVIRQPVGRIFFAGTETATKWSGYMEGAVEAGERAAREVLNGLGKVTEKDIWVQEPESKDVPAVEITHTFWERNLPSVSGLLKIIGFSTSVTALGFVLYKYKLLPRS

[9] = tested on: cholinergic neurons, striatal neurons, and sensory neurons; settings: cited from earlier work
[10] = tested on: TNF-α; experiment: LPS-induced TNF-α in the serum of mice; format: in vivo, C57BL mice; settings: 30 mg/kg ip 2 h before LPS
Protocol: Sixty female C57BL mice (4-6 weeks old) were divided into six groups, each with 10 animals. Three groups (1,3,5) received vehicle only (PBS containing 0.1% TEA (tetraethyl ammonium hydrochloride)), 200 μl/mouse via intraperitoneal (ip) administration. The other three groups (2,4,6) received Compound A (30 mg/kg in 200 μl, ip) of vehicle (PBS containing 10% of the ethyl ester of 12-hydroxystearic acid; solutol). Two hours later, the animals received by ip administration, 0.1 mg/kg of LPS (groups 1 & 2), 0.5 mg/kg of LPS (groups 3 & 4), and 1.0 mg/kg of LPS (groups 5 % 6). Two hours after LPS administration, all of the animals were sacrificed, and plasma samples were obtained and assayed for their […] and IL-1β content. Assays were carried out as described in Example 8.
The numbers in are the group numbers as described above. N indicates the number of animals from which plasma measurements where made. ND=not done.

CCSCc1ccc2c(c1)c1c3c(c4c5cc(CSCC)ccc5n5c4c1n2C1CC(O)(C(=O)OC)C5(C)O1)CNC3=O (stereo not drawn) [Compound A]
block of uptake of catecholamines into nerve endings [1]: found not to inhibit monoamine oxidase A or B in vitro (FIGS. 1 and 2) or block uptake of catecholamines into nerve endings
% Unlesioned Control ([2]; 0.03 mg/kg daily): 8 ± 2.5%
Striatal TH Activity (± SEM) ([2]; 0.03 mg/kg daily): 1.8 ± 0.6
% Unlesioned Control ([2]; 0.3 mg/kg daily): 12 ± 2.5%
Striatal TH Activity (± SEM) ([2]; 0.3 mg/kg daily): 2.7 ± 0.6
% Unlesioned Control ([2]; 3.0 mg/kg daily): 23 ± 8.0%
Striatal TH Activity (± SEM) ([2]; 3.0 mg/kg daily): 5.3 ± 1.8
protein kinase C inhibition at concentrations inhibiting TNF-α and IL-1β production ([3]; at 139 nM and 261 nM): inactive
fold less active than K-252a against protein kinase C ([3]; compared with K-252a): 570 fold
pIC50 ([3]; in vitro): 4.80
inhibitory activity against PKC ([3]; summary statement): little or no inhibitory activity against PKC
increase in landing foot spread (LFS) produced by acrylamide [4]: reduced the magnitude of the increase in LFS
monoamine oxidase-B inhibition [5]: not a monoamine oxidase-B inhibitor
glutamic acid decarboxylase-expressing neurons vs vehicle-only animals ([6]; mid-nbm or caudal nbm, 0.03 mg/kg s.c. q.o.d.): No statistically significant differences
glutamic acid decarboxylase-expressing neurons on lesioned side relative to unlesioned side ([6]; rostral nbm, 0.03 mg/kg s.c. q.o.d. until 18 days post-lesion, mean, s.e.m., p<0.05 vs vehicle (34 ± 19)): 78 (±16 s.c.m.) percent
total number of errors in T-maze task compared to normals [7]: not different from normals
monoamine oxidase-A inhibition [8]: not a monoamine oxidase-A inhibitor
function of cholinergic neurons, striatal neurons, and sensory neurons [9]: enhance the function of cholinergic neurons, striatal neurons, and sensory neurons
TNF-α ([10]; LPS dose 0.1 ip, vehicle 6129 ± 676, N = 10): 2714 ± 449 pg/mL
TNF-α ([10]; LPS dose 0.5 ip, vehicle 7141 ± 1113, N = 7): 3766 ± 375 pg/mL
TNF-α ([10]; LPS dose 1.0 ip, vehicle 3745 ± 610, N = 9): 2399 ± 1399 pg/mL
